The results in this text go back to patent US20220226337A1 (Gilead Sciences, Inc., priority 2018, published 2022).

Structures are written as SMILES.

What is called EC50 is the concentration that produces a half-maximal response.

This experiment addresses T1, α4β7 integrin interaction with MadCAM-1 (RPMI8866 cells) (Homo sapiens, UniProt P13612+P26010).
T1 construct: α4β7 integrin expressing cells; endogenous in cells; host or cells: RPMI8866 cells
T1 sequence (P13612 34-1032): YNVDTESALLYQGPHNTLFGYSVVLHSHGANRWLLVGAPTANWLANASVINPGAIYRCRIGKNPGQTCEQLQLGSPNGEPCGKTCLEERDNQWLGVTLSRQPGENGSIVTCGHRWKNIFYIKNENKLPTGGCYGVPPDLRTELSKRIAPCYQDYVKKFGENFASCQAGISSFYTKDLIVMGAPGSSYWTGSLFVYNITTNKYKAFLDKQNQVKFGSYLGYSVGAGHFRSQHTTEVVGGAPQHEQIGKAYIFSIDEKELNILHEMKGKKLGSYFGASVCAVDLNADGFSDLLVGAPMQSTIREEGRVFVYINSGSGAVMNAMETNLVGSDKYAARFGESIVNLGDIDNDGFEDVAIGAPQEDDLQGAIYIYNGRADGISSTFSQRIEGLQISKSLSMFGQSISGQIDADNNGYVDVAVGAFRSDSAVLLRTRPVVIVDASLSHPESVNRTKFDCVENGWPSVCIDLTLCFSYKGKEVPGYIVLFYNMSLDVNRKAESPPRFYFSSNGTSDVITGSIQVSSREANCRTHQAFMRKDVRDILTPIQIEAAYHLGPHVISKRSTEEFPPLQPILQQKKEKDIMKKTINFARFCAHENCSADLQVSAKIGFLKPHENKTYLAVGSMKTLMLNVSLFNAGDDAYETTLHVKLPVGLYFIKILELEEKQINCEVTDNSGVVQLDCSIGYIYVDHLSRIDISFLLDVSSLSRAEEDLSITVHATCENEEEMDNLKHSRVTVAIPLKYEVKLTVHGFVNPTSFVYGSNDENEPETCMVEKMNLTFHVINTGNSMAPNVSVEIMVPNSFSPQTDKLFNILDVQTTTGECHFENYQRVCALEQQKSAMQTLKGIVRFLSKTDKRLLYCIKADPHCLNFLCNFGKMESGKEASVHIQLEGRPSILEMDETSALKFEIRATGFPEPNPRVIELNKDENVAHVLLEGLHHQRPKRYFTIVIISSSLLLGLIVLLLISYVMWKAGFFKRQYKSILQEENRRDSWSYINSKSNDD
T1 sequence (P26010 20-798): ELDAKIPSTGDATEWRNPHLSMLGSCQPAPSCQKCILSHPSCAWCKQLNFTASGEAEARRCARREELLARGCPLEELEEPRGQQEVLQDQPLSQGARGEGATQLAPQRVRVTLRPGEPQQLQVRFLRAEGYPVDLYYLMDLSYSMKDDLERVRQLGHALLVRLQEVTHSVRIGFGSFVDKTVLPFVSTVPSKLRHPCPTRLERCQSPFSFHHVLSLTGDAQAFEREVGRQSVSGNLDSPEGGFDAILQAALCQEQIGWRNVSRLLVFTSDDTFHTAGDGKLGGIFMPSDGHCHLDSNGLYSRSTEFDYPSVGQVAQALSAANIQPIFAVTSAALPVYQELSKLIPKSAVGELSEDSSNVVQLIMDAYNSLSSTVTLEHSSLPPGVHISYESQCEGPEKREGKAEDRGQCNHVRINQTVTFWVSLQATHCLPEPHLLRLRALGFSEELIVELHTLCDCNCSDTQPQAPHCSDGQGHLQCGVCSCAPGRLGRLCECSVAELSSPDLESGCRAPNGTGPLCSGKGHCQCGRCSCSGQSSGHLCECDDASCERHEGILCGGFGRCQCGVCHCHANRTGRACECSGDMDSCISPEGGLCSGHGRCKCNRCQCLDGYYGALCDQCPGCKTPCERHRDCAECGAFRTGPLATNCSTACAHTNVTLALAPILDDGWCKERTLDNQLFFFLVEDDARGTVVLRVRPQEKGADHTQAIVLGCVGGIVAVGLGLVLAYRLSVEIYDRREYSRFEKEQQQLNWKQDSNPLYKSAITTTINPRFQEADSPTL
Briefly: α4β7 Integrin Cell Capture Assay. The class given is cell-based. Conditions: capture of α4β7 integrin expressing RPMI8866 cells on recombinant MadCAM-1 extracellular domain-coated plate; 0.5 mM MnCl2. The method in brief:
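RPMI8866 cells (0.5×10^6 cells/mL in DMEM + 0.5% FBS + 0.5 mM MnCl2) preincubated with compound 1 h at 37 °C, then allowed to adhere 30 min at 37 °C to plates coated with MAdCAM-1 extracellular domain (1.0 μg/mL). Bound cells fixed with 2% glutaraldehyde, Hoechst-stained, imaged and counted; EC50 from cell count versus concentration.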
For the compound `CC[C@@H](Nc1cc(F)c(C(=O)N[C@@H](Cc2ccc(-c3c(C)n(C)c(=O)n(C)c3=O)c3c2CCCO3)C(=O)O)c(F)c1)C(F)(F)F` [Example 54, (S)-2-(2,6-difluoro-4-(((R)-1,1,1-trifluorobutan-2-yl)amino)benzamido)-3-(8-(1,3,6-trimethyl-2,4-dioxo-1,2,3,4-tetrahydropyrimidin-5-yl)chroman-5-yl)propanoic acid], the EC50 is 0.607 nM.

With `C[C@@H](Nc1cc(F)c(C(=O)N[C@@H](Cc2ccc(-c3cn(C)c(=O)n(C)c3=O)c3c2CCCO3)C(=O)O)c(F)c1)C(F)(F)F` [Example 88, (S)-2-(2,6-difluoro-4-(((R)-1,1,1-trifluoropropan-2-yl)amino)benzamido)-3-(8-(1,3-dimethyl-2,4-dioxo-1,2,3,4-tetrahydropyrimidin-5-yl)chroman-5-yl)propanoic acid], the EC50 came to 2.42 nM.

With `Cn1nc(C(F)(F)F)cc(-c2ccc(C[C@H](NC(=O)c3c(F)cc(N4CCOC[C@@H]4C(F)(F)F)cc3F)C(=O)O)c3c2OCCC3)c1=O` [Example 133], the EC50 amounted to 1.42 nM. For `CC[C@@H](Nc1cc(F)c(C(=O)N[C@@H](Cc2ccc(-c3c(C)cc(C)n(C)c3=O)c3c2CCCO3)C(=O)O)c(F)c1)C(F)(F)F` [Example 52, (S)-2-(2,6-difluoro-4-(((R)-1,1,1-trifluorobutan-2-yl)amino)benzamido)-3-(8-(1,4,6-trimethyl-2-oxo-1,2-dihydropyridin-3-yl)chroman-5-yl)propanoic acid], the EC50 was 1.63 nM.

On to `Cc1c(-c2ccc(C[C@H](NC(=O)c3c(F)cccc3F)C(=O)O)c3c2OCCC3)c(=O)n(C)c2ccccc12` (single isomer, unassigned) [Example 58], for which the EC50 turned out to be 2.56 nM. Take `Cc1nc(C)n(C)c(=O)c1-c1ccc(C[C@H](NC(=O)c2c(F)cc(N3CCOC[C@@H]3C(F)(F)F)cc2F)C(=O)O)c2c1OCCC2` (atropisomer, axis not shown) [Example 117]: the EC50 is 0.203 nM. To `CC[C@@H](Nc1cc(F)c(C(=O)N[C@@H](Cc2ccc(-c3cc4ccccc4n(C)c3=O)c3c2CCCO3)C(=O)O)c(F)c1)C(F)(F)F` [Example 31, (S)-2-(2,6-difluoro-4-(((R)-1,1,1-trifluorobutan-2-yl)amino)benzamido)-3-(8-(1-methyl-2-oxo-1,2-dihydroquinolin-3-yl)chroman-5-yl)propanoic acid] belongs 8.81 nM. As to `C[C@@H](Nc1cc(F)c(C(=O)N[C@@H](Cc2ccc(-c3c(Cl)cc(C#N)cc3Cl)c3c2CCCO3)C(=O)O)c(F)c1)C(F)(F)F` [Example 91, (S)-3-(8-(2,6-dichloro-4-cyanophenyl)chroman-5-yl)-2-(2,6-difluoro-4-(((R)-1,1,1-trifluoropropan-2-yl)amino)benzamido)propanoic acid], the EC50 came out at 11 nM.

For the compound `O=C(N[C@@H](Cc1ccc(-c2c(Cl)cc(F)cc2Cl)c2c1[C@H]1C[C@H]1CO2)C(=O)O)c1c(F)cccc1F` (single isomer, unassigned) [Example 78], the EC50 was found to be 120 nM.

For the compound `O=C(N[C@@H](Cc1ccc(-c2c(Cl)cc(F)cc2Cl)c2c1CCCO2)C(=O)O)c1c(F)cc(N2CCOC[C@@H]2C(F)(F)F)cc1F` [Example 83, (S)-3-(8-(2,6-dichloro-4-fluorophenyl)chroman-5-yl)-2-(2,6-difluoro-4-((R)-3-(trifluoromethyl)morpholino)benzamido)propanoic acid], the EC50 stood at 35.5 nM. To `Cn1c(=O)c(-c2ccc(C[C@H](NC(=O)c3c(F)cc(N4CCOC[C@@H]4C(F)(F)F)cc3F)C(=O)O)c3c2OCCC3)cc2cnccc21` [Example 171] belongs 0.201 nM. In the case of `Cc1cc(N2CCOC[C@@H]2C(F)(F)F)cc(F)c1C(=O)N[C@@H](Cc1ccc(-c2cc3cnccc3n(C)c2=O)c2c1CCCO2)C(=O)O` [Example 170], the EC50 amounted to 0.14 nM. With `Cc1cc(N2CCOC[C@@H]2C(F)(F)F)cc(F)c1C(=O)N[C@@H](Cc1ccc(-c2nc(C)c(C)n(C)c2=O)c2c1OCCO2)C(=O)O` [Example 179] the figure was 0.267 nM; with `CC[C@@H](Nc1cc(F)c(C(=O)N[C@@H](Cc2ccc(-c3c(C)cc(C)n(C)c3=O)c3c2COC3)C(=O)O)c(F)c1)C(F)(F)F` [Example 22, (S)-2-(2,6-difluoro-4-(((R)-1,1,1-trifluorobutan-2-yl)amino)benzamido)-3-(7-(1,4,6-trimethyl-2-oxo-1,2-dihydropyridin-3-yl)-1,3-dihydroisobenzofuran-4-yl)propanoic acid], 1.35 nM; with `O=C(N[C@@H](Cc1ccc(-c2c(Cl)cc(F)cc2Cl)c2c1CCCO2)C(=O)O)c1c(F)cc(N[C@H](c2ccccc2)C(F)(F)F)cc1F` [Example 84, (S)-3-(8-(2,6-dichloro-4-fluorophenyl)chroman-5-yl)-2-(2,6-difluoro-4-(((R)-2,2,2-trifluoro-1-phenylethyl)amino)benzamido)propanoic acid], 64 nM.

Turning to `Cc1cc(C)n(C)c(=O)c1-c1ccc(C[C@H](NC(=O)c2c(F)cc(N[C@H](C)C(F)(F)F)cc2F)C(=O)O)c2c1OCCC2` [Example 53, (S)-2-(2,6-difluoro-4-(((R)-1,1,1-trifluoropropan-2-yl)amino)benzamido)-3-(8-(1,4,6-trimethyl-2-oxo-1,2-dihydropyridin-3-yl)chroman-5-yl)propanoic acid], the EC50 was determined as 3.28 nM.

As to `COc1cc2ccccc2cc1-c1ccc(C[C@H](NC(=O)c2c(F)cccc2F)C(=O)O)c2c1OCCO2` [Example 11, (S)-2-(2,6-difluorobenzamido)-3-(8-(3-methoxynaphthalen-2-yl)-2,3-dihydrobenzo[b][1,4]dioxin-5-yl)propanoic acid], the EC50 was 29.3 nM.

For `Cc1cc(N2CCOC[C@@H]2C(F)(F)F)cc(F)c1C(=O)N[C@@H](Cc1ccc(-n2c(=O)c3ccncc3n(C)c2=O)c2c1CCCO2)C(=O)O` [Example 115, (S)-2-(2-fluoro-6-methyl-4-((R)-3-(trifluoromethyl)morpholino)benzamido)-3-(8-(1-methyl-2,4-dioxo-1,4-dihydropyrido[3,4-d]pyrimidin-3(2H)-yl)chroman-5-yl)propanoic acid], the concentration giving a half-maximal response (EC50) turned out to be 0.027 nM.
